Source: a melting point compilation (Tetko et al.; mined from patent text by program, amines drawn as free bases though some values may be those of a salt)

| SMILES | melting point [°C] |
| --- | --- |
| COc1cc(C=O)cc(Cl)c1Cl | 97 to 98.5 |
| O=C(CNC(=O)c1cc([N+](=O)[O-])c([N+](=O)[O-])cc1Cl)OCc1ccccc1 | 122 to 124 |
| COC(=O)C1=C(C(=O)OC)C2(c3ccc(Cl)cc3Cl)CCC1O2 (stereo not given) | 78 |
| CCS(=O)(=O)c1cc(C(C)(C)C)cc(C=O)c1O | 92 to 93 |
| O=C1Nc2ccccc2SC1CCN1C=CN(c2ccc(F)cc2)C=C1 (stereo not given) | 158 to 159 |
| Cc1cc(Br)cc(/C=N/O)c1F | 126 to 127 |
| COC(=O)c1ncn2c1CN=C(c1ccccc1Cl)c1cc(Cl)ccc1-2 | 206 to 208 |
| N#Cc1cccc(CN2CCN(c3ccc(NC(=O)c4ccccc4OCc4ccc(C(F)(F)F)cc4)cc3)CC2)c1 | 190 to 191 |
| CCOC(=O)C(C)(C)c1nc2ccc(OCCCN3CCC(OC(c4ccccc4)c4ccccc4)CC3)nn2c1Cl | 186 to 188 |
| COc1ccccc1N1CC[N+]([O-])(CCN(C(=O)C2CCCCC2)c2ccccc2[N+](=O)[O-])CC1 | 128 to 132 |
| CSC(=S)OCc1cn(-c2ccc(N3CCOCC3)c(F)c2)nn1 | 118 |
| CN1CCCCC1COC(=O)c1cccc(NC(=O)C(CS)Cc2ccccc2)c1 (stereo not given) | 68 to 69 |
| CCn1cc(Br)ccc1=NC=C(S(=O)(=O)c1ccccc1)S(=O)(=O)c1ccccc1 | 233 to 235 |
| CC(C)OC(=O)Nc1ccc(N)c([N+](=O)[O-])c1 | 173 to 175 |
| CCOC(=O)COc1ccccc1C(O)(CC)c1cccc(Cl)c1 (stereo not given) | 83 to 84 |
| CCCCN(Cc1ccc2c(Br)c(OCc3nnn[nH]3)ccc2c1)C(=O)c1c(C)oc2ccccc12 | 204 to 206 |
| CCCCC[C@@H](O)C=C[C@@H]1[C@@H](CC(=O)O)[C@@H](O)C[C@H]1O | 105 to 107 |
| CCOC(=O)c1cn(C)c2sc(CN3CCOCC3)c(C)c2c1=O | 172 to 173 |
| O=c1nc(N(CCO)c2ccccc2)sc2ncccc12 | 168 to 169 |
| CCCn1nc(C(C)C)c(C(N)=O)c1Cc1ccc(-c2ccccc2-c2nnn[nH]2)cc1 | 156 to 159 |
| Nc1ncnc2ncn(COCCO)c12 | 122 to 123 |
| Brc1cnc(SCc2cccs2)nc1 | 87 |
| O=S(=O)(c1ccccc1)N1CCC(C(Nc2ccc(F)cc2)c2ccc(F)cc2)CC1 (stereo not given) | 175 to 176 |
| O=C(CO)NCCCCCCCCCCCCNC(=O)CO | 94 to 97 |

| SMILES | melting point [°C] |
| --- | --- |
| c1ccc(Cn2ncc3c2Cc2cn[nH]c2-3)cc1 | 61 to 72 |
| CC(C)c1cccc(C(C)C)c1NC(=O)Cc1c(-c2ccccc2)c2cc(Cl)ccc2n1C | 279 to 280 |
| Cc1ccc(S(=O)(=O)NCCCN(CCN(CCCNS(=O)(=O)c2ccc(C)cc2)S(=O)(=O)c2ccc(C)cc2)S(=O)(=O)c2ccc(C)cc2)cc1 | 141 to 142 |
| O=[N+]([O-])c1cc(N2CCNCC2)ccc1S(=O)(=O)c1ccccc1 | 180 to 182 |
| O=[N+]([O-])c1c(-c2ccc(Cl)cc2)[nH]c(C(F)(F)F)c1-c1csc(Br)c1Br | 241 to 242 |
| Cn1cc(-c2ccc(C(F)(F)F)cc2)c(=O)c(-c2cccc(Cl)c2)c1 | 147 to 151 |
| COc1ccc(C=CC(=O)c2c(OC)cc(OC)cc2OC(C)=O)cc1 | 105 to 107 |
| CSc1ccc(-c2c(C#N)cnn2-c2ccc(F)cc2)cc1 | 122 to 123 |
| COc1ccc(/C=C2\C3=C(CCCC3)CCN2C(C)=O)cc1 | 74.5 to 76 |
| Cn1c(C(F)(F)F)cc(=O)n(-c2cc(F)c([N+](=O)[O-])cc2F)c1=O | 150 |
| CCNC(=O)c1nn(-c2ccc(Cl)cc2)c(=O)c2c(N)scc12 | 203 to 205 |
| Nc1nc2cc3[nH]c(-c4ccncc4)nc3cc2[nH]1 | > 320 |
| COc1ccc(-c2cc3c(Nc4cccc(Cl)c4)ncnc3[nH]2)cc1 | 294 to 295 |
| CCOC(=O)Cc1cccc2c(-c3ccc([N+](=O)[O-])cc3)nccc12 | 89.5 to 90.5 |
| COc1cccc(C(=O)NCC2CCCCC2)c1NC(=O)N[C@@H](Cc1ccc(NC(=O)c2c(Cl)cccc2Cl)cc1)C(=O)O | 175 |
| Cc1ccc(C(=O)Nc2c(NC(=O)CN3CCSCC3)ccc3c2C(=O)c2ccccc2C3=O)cc1 | 210 to 211 |
| CC(CN(C(=O)c1ccco1)c1c(C)cccc1C)=NO | 155 to 156 |
| FC(F)(F)c1ccc(-c2cc(Oc3ccc4cccnc4c3)nnc2Oc2ccc3cccnc3c2)cc1 | 158 to 162 |
| Cc1cc(C)nc(NC(=N)Nc2ccccc2C(F)(F)F)n1 | 161 to 162 |
| COC(=O)c1cc(OC)c(OC)c([N+](=O)[O-])c1 | 75 to 76 |
| O=CNC1=NN(c2ccccc2)C(c2ccccc2)C1 (stereo not given) | 158 to 160 |
| Cc1c(C)n(C2CC2)c2c(OCc3ccccc3)nncc12 | 121 to 122 |
| CCCCCCCCCCCCCCCCSCC(CNS(=O)(=O)CCCCl)NC(=O)OC(C)(C)C (stereo not given) | 100 to 102 |
| C=CC(=O)OC1(C)CCCC2C3C=CC(C3)C21 (stereo not given) | 41 to 42 |

| SMILES | melting point [°C] |
| --- | --- |
| FC(F)(F)c1cc(-c2ccc(Cl)c(Cl)c2)nc2c(-c3ccncc3)cnn12 | 260 |
| CC1(C)CCC(C)(C)c2cc(-c3cc(-c4ccc(C(=O)O)cc4)ccc3OCCCCCCCO)ccc21 | 168 to 172 |
| CN(c1ccc(O)cc1)c1ncnc2cc(Cl)ccc12 | 165 |
| CC(C)(C)c1cc2c(Cl)ncnc2o1 | 72 to 74 |
| CC#CC(C)(C)NC(=O)C(OCC)Oc1cc(Cl)cc(Cl)c1 (stereo not given) | 76.5 |
| CCCCCNC1=CC(=O)c2c(OC)ccc(OC)c2C1=O | 102 to 103 |
| CCCc1c(OCCCOC2CC(CC(=O)O)Oc3ccccc32)ccc(C(C)=O)c1O (stereo not given) | 102 to 105 |
| O=C(O)c1ccc2c(c1)C(=O)NC(C(Cl)(Cl)Cl)N2 (stereo not given) | > 280 |
| Cc1sc(-c2ccccc2)nc1COc1ccc(Cn2cc(CC(=O)O)c(-c3ccccc3)n2)cn1 | 140 to 141 |
| CC=Cc1cccc2c1OC(c1ccccc1)CC2=O (stereo not given) | < 50 |
| CC1(C)OC(C(F)(F)F)Nc2ccc(-c3cc(F)cc(C#N)c3)cc21 (stereo not given) | 102 to 103 |
| Nc1nc2ccccc2c2c1ncn2CCO | 260 to 262 |
| N#Cc1cccc(NC(=O)NCc2cccc3c2CN(C2CCC(=O)NC2=O)C3=O)c1 (stereo not given) | 330 to 333 |
| Nc1c(-c2ccc(O)cc2)ncnc1-c1ccc(Cl)cc1Cl | 97.3 to 98.2 |
| CC1CCCN(C(=O)C2Cc3cc(O)ccc3N2c2ccc(=O)n(C)n2)C1 (stereo not given) | 253 to 256 |
| O=C(Nc1ccc(N2CCN(C(=O)Nc3ccc(OCCO)cc3C(F)(F)F)CC2)cc1)Nc1cccc2c1OCC2 | 218 to 220 |
| FC(F)(F)c1ccc(-c2cc(C(F)(F)F)n3cnc(-c4cccnc4)c3n2)cc1 | 231 |
| O=C(O)Cn1c(=O)c(=O)[nH]c2cc([N+](=O)[O-])c(-n3ccc(CN4CCN(Cc5ccccc5)CC4)c3)cc21 | > 230 |
| CCOC(=O)C1=C(N)N=C(N)C(C)(C(=O)OCC)C1c1cccc([N+](=O)[O-])c1 (stereo not given) | 142 |
| CC(=O)Oc1c(C)c(C)c2c(c1C)CCC(C)(C(=O)N1CCN(c3cc(N4CCCC4)nc(N4CCCC4)n3)CC1)O2 (stereo not given) | 191 to 192 |
| CCCCCCCCCCNC(=O)C=Cc1cccc(N2CC(C(=O)O)CC2=O)c1 (stereo not given) | 151 to 152 |
| C#CCn1cc(CO)c([N+](=O)[O-])c1 | 60 |
| COC(=O)C=C1CC(NC(=O)OC(C)(C)C)C1 (stereo not given) | 79 to 82 |
| Cc1ccc(S(=O)(=O)N2[C@H](CCCC(=O)O)CC[C@@H]2c2ccc(F)cc2)cc1 (racemic) | 87 |

| SMILES | melting point [°C] |
| --- | --- |
| CCOC(=O)c1cc2cc([N+](=O)[O-])cc(C)c2o1 | 125 to 126 |
| COc1ccc(S(=O)(=O)n2c(N)nc3c2c(=O)n(CC2CC2)c(=O)n3CC2CC2)cc1 | 177 to 178 |
| CCN1C(=O)c2sccc2N(C)c2ncccc21 | 119 to 120 |
| CCOC(=O)CN1C(=O)C(NC(=O)Nc2cccc(C)c2)N=C(C)c2cccc(C)c21 (stereo not given) | 230 to 231 |
| CCCc1nn(C)c2c(=O)[nH]c(-c3cc([N+](=O)[O-])ccc3OCC)nc12 | 214 to 216 |
| N#Cc1c(Nc2cccc(Cl)c2)n[nH]c1N | 195 to 200 |
| N=C(Nc1ccc(CNC=Nc2cccs2)cc1)c1cccs1 | 200 to 201 |
| CCCC1=C(C#N)C(c2cccc3c2OCCC3)c2c[nH]nc2N1 (stereo not given) | 230 |
| CO[C@@H]1CN(CC2OCCO2)CC[C@@H]1NC(=O)c1cc(Cl)c(N)c2c1OCC2 (relative stereo) | 149 |
| CC(C)(C)C1NC(C(=O)O)CS1 (mixture of isomers) | 184 |
| N=C(Nc1ccc(Cl)cc1)Nc1ncccc1OCc1ccccc1 | 170 to 172 |
| O=C(C=Cc1cccc(NC(=O)C=Cc2ccccc2)c1)NO | 178 |
| Cc1cc2c(cc1Br)C(=O)CC(C)(C)O2 | 95 to 96 |
| Cc1c(C)c2c(c(C)c1N)CC(C)(CN1CCCCC1)O2 (stereo not given) | 60 to 61 |
| CC(NC(=O)c1ccc(Cl)cc1)c1cccc2ccccc12 (stereo not given) | 117 to 118 |
| CCOc1cc2nc(NC)nc(-c3cccc(-c4cncc(SC)c4)c3)c2cc1OCC | 105 to 107 |
| Cc1nnc2n1-c1ccc(C#CCn3ncc4ccccc43)cc1C(c1ccccc1F)=NC2 | 148 to 151 |
| CC(C)(C)OC(=O)Nc1cc(NCCO)c(I)cc1[N+](=O)[O-] | 130 to 148 |
| CON=C(C)CN1C(=O)c2ccccc2C1=O | 114 to 131 |
| CC(C)(C)c1cc(SCCOC(=O)c2cc(C(C)(C)C)c(OC(=O)c3cc(C(C)(C)C)c(O)c(C(C)(C)C)c3)c(C(C)(C)C)c2)cc(C(C)(C)C)c1O | 168 to 170 |
| CCOCc1nc2c(N)nc3cc(OCCNC(=O)OC(C)(C)C)ccc3c2n1CC1COC(C)(C)O1 (stereo not given) | 82 to 84 |
| Nc1nc(-c2ccccc2)c(-c2ccnc(Nc3cccc(I)c3)n2)s1 | 243 to 244 |
| COc1cc(C=O)c([N+](=O)[O-])cc1OCCCCCCOC(C)=O | 79.8 to 81.5 |
